Reference: ChEMBL document CHEMBL5725503, “Heterocyclic compounds and methods for their use” (2017)

Molecular target: T1, Type-2 angiotensin II receptor (Homo sapiens, UniProt P50052)
T1 sequence (P50052 whole entry): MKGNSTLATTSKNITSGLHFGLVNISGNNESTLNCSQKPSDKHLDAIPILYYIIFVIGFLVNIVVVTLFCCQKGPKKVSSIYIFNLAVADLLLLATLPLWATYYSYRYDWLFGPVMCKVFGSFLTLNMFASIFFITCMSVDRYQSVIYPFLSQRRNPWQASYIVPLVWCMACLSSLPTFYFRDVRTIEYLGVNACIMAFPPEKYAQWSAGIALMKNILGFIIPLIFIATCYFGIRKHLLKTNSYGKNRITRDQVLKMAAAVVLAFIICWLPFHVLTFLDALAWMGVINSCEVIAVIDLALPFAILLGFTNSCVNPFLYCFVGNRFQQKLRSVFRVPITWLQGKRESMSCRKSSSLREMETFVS
Experiment: AT2 Receptor Binding Assay: 120 μL membrane ([…]) was incubated with 15 μL of [125I]-CGP42112A and 15 μL of compound at RT for 1.5 hrs.The binding reaction was stopped by rapid filtration through Unifilter GF/C plates (presoaked in 0.3% (v:v) BSA).Plate was washed three times with ice cold wash buffer.The filtration plates were dried at 37° C. overnight.50 μL of scintillation cocktail was added to each well.Radioactivity was determined using MicroBetaTriltuunicroplate scintillation counter.

IC50: 3.92 µM
Compound: O=C(O)[C@@H]1CN(CC#Cc2ccc(F)cc2)CCN1C(=O)C(c1ccccc1)c1ccccc1
